The values that follow are results of earlier work, collected in patent US12263157B2, “Aldosterone synthase inhibitors for treating chronic kidney disease” (Boehringer Ingelheim International GmbH, priority 2021, dated 2025).

The structures appear in SMILES notation.

For series [1], the system named is patients with diabetic kidney disease. The following applies: on top of standard of care.
The test system of series [2] is patients with heart failure with reduced ejection fraction. The following applies: overall trial population.
In series [3] the test system is people with type 2 diabetes.

In the case of `Cc1ccc([C@@H]2O[C@H](CO)[C@@H](O)[C@H](O)[C@H]2O)cc1Cc1ccc(-c2ccc(F)cc2)s1` [canagliflozin], the “relative risk reduction for the composite endpoint of doubling of serum creatinine, ESRD or renal/CV death” value in series [1] is listed as 30%.
Regarding `OC[C@H]1O[C@@H](c2ccc(Cl)c(Cc3ccc(O[C@H]4CCOC4)cc3)c2)[C@H](O)[C@@H](O)[C@@H]1O` [empagliflozin], the “reduction of the risk of the exploratory composite renal endpoint (chronic dialysis, kidney transplant, or sustained reduction in eGFR)” value in series [2] is 50%. Moreover, the “HR for the composite outcome of doubling of creatinine, the need to start kidney replacement therapy, or renal death” value in series [3] (exploratory analysis, 95% CI 0.40-0.75) is given as 0.54. The “reduction of the incidence of the composite outcome of doubling of creatinine, the need to start kidney replacement therapy, or renal death” value in series [3] (exploratory analysis, people with type 2 diabetes) was 46%. The “risk of hyperkalaemia or acute kidney injury” value in series [3] (regardless of baseline ACEi or ARB use) was “no evidence of an increased risk”.
